Data taken from the NIST ThermoML archive (doi:10.1021/je049943s).

Columns and labels:
[1] = 101.33 kPa, Liquid
[2] = excess molar enthalpy (molar enthalpy of mixing); xn = mol fraction of the nth substance listed; settings: 308.15 K, 101.33 kPa, Liquid

CC(O)CO (stereo unspecified) [1,2-propanediol]
Settings	mass density [kg/m3]
[1], 308.15 K	1026.15

OCCc1ccccc1 [2-phenylethanol]
Settings	mass density [kg/m3]
[1], 308.15 K	1008.68

OCCc1ccccc1 [2-phenylethanol] + CC(O)CO
[2]
Settings	excess molar enthalpy [kcal/mol]
x2 = 0.0637	0.0251
x2 = 0.1198	0.0403
x2 = 0.1695	0.0483
x2 = 0.2139	0.0548
x2 = 0.2858	0.0599
x2 = 0.3525	0.0608
x2 = 0.4495	0.0582
x2 = 0.5212	0.0576
x2 = 0.6201	0.0539
x2 = 0.7101	0.0509
x2 = 0.7656	0.0473
x2 = 0.8305	0.0397
x2 = 0.8672	0.0339
x2 = 0.9074	0.0266
x2 = 0.9289	0.0212
x2 = 0.9494	0.0158
x2 = 0.9751	0.00853

OCCc1ccccc1 [2-phenylethanol] + OCCO
[2]
Settings	excess molar enthalpy [kcal/mol]
x2 = 0.0823	0.0254
x2 = 0.1521	0.0386
x2 = 0.212	0.0456
x2 = 0.264	0.0486
x2 = 0.3498	0.0495
x2 = 0.4177	0.0478
x2 = 0.5183	0.0467
x2 = 0.5892	0.0446
x2 = 0.6827	0.0408
x2 = 0.7635	0.036
x2 = 0.8115	0.0313
x2 = 0.8659	0.0257
x2 = 0.8959	0.0214
x2 = 0.9281	0.0168
x2 = 0.9451	0.0134
x2 = 0.9627	0.00989
x2 = 0.981	0.00507

OCCc1ccccc1 [2-phenylethanol] + OCCOCCO
[2]
Settings	excess molar enthalpy [kcal/mol]
x2 = 0.05	-0.0263
x2 = 0.0952	-0.0434
x2 = 0.1363	-0.0541
x2 = 0.1738	-0.0613
x2 = 0.2399	-0.0675
x2 = 0.2961	-0.0721
x2 = 0.3869	-0.0735
x2 = 0.4569	-0.0727
x2 = 0.5579	-0.0712
x2 = 0.6544	-0.0684
x2 = 0.7163	-0.0652
x2 = 0.7911	-0.0577
x2 = 0.8347	-0.0503
x2 = 0.8834	-0.0401
x2 = 0.9099	-0.0355
x2 = 0.9381	-0.0248
x2 = 0.968	-0.0131

OCCc1ccccc1 [2-phenylethanol] + OCCOCCOCCO
[2]
Settings	excess molar enthalpy [kcal/mol]
x2 = 0.036	-0.0244
x2 = 0.0695	-0.0421
x2 = 0.1008	-0.0542
x2 = 0.13	-0.0622
x2 = 0.1832	-0.0713
x2 = 0.2296	-0.0755
x2 = 0.3096	-0.079
x2 = 0.3741	-0.0801
x2 = 0.4728	-0.0805
x2 = 0.5737	-0.0778
x2 = 0.6421	-0.0755
x2 = 0.7346	-0.0676
x2 = 0.782	-0.06
x2 = 0.8433	-0.0473
x2 = 0.8777	-0.0396
x2 = 0.915	-0.0282
x2 = 0.9556	-0.0151

OCCc1ccccc1 [2-phenylethanol] + OCCOCCOCCOCCO
[2]
Settings	excess molar enthalpy [kcal/mol]
x2 = 0.0281	-0.0289
x2 = 0.0546	-0.0488
x2 = 0.0797	-0.0614
x2 = 0.1036	-0.0687
x2 = 0.1478	-0.0782
x2 = 0.1878	-0.0817
x2 = 0.2575	-0.0832
x2 = 0.3161	-0.0835
x2 = 0.4095	-0.0859
x2 = 0.5099	-0.0878
x2 = 0.5811	-0.0845
x2 = 0.6754	-0.08
x2 = 0.7351	-0.0724
x2 = 0.8063	-0.0606
x2 = 0.8473	-0.0507
x2 = 0.8928	-0.042
x2 = 0.9433	-0.0258

OCCOCCO [diethylene glycol]
[1]
Settings	mass density [kg/m3]
298.15 K	1112.38
308.15 K	1105.88

OCCOCCOCCO [triethylene glycol]
[1]
Settings	mass density [kg/m3]
298.15 K	1119.78
308.15 K	1112.61
